Experimental data: PMC5831858, “Pharmacological characterisation of CR6086, a potent prostaglandin E2 receptor 4 antagonist, as a new potential disease-modifying anti-rheumatic drug” (Arthritis Research & Therapy, 2018)

Tests used:
[1] = test system: BZD (central); experiment: Benzodiazepine receptor (central) binding; settings: [^3H]flunitrazepam, Rat cerebral cortex
[2] = test system: P2Y; experiment: Purinergic receptor P2Y binding; settings: [^35S]dATPαS, Rat cerebral cortex
[3] = test system: PCP; experiment: PCP receptor binding; settings: [^3H]TCP, Rat cerebral cortex
[4] = biological target: AT1 (Homo sapiens, UniProt P30556); experiment: Angiotensin receptor AT1 binding; settings: [^125I][Sar^1, IIe^8]-AT-II, Human recombinant HEK-293 cells, read-out: CR6086 Activity at 10µM
AT1, sequence (P30556 whole entry): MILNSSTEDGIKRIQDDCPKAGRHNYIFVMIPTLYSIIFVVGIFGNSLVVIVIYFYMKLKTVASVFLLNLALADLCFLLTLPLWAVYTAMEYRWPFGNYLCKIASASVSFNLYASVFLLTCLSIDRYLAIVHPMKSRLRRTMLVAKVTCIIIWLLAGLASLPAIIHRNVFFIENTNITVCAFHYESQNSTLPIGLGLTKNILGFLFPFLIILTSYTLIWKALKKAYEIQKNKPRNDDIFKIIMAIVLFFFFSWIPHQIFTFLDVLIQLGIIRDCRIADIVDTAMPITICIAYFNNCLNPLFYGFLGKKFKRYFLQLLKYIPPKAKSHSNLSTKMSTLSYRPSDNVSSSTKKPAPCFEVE

[5] = biological target: 5-HT3 (Homo sapiens, UniProt P46098); experiment: Serotonin receptor 5-HT3 binding; settings: [^3H]BRL 43694, Human recombinant CHO cells, read-out: CR6086 Activity at 10µM
5-HT3, sequence (P46098 24-478): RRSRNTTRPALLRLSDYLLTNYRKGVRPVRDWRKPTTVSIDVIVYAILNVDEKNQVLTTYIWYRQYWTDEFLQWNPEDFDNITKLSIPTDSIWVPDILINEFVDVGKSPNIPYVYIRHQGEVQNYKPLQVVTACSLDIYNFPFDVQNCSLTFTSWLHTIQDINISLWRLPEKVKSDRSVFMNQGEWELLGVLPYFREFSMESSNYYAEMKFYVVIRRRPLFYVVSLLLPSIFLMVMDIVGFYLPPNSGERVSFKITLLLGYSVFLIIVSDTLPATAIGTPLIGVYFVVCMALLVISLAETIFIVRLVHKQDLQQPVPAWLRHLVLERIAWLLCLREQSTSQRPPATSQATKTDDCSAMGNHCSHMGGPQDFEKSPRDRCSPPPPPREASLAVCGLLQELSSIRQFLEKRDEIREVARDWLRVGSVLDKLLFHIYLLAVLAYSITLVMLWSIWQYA

[6] = test system: σ (non-selective); experiment: σ receptor (non-selective) binding; settings: [^3H]DTG, Rat cerebral cortex
[7] = biological target: Dopamine transporter (Homo sapiens, UniProt Q01959); experiment: Dopamine transporter binding; settings: [^3H]BTCP, Human recombinant CHO cells, read-out: CR6086 Activity at 10µM
Dopamine transporter, sequence (Q01959 whole entry): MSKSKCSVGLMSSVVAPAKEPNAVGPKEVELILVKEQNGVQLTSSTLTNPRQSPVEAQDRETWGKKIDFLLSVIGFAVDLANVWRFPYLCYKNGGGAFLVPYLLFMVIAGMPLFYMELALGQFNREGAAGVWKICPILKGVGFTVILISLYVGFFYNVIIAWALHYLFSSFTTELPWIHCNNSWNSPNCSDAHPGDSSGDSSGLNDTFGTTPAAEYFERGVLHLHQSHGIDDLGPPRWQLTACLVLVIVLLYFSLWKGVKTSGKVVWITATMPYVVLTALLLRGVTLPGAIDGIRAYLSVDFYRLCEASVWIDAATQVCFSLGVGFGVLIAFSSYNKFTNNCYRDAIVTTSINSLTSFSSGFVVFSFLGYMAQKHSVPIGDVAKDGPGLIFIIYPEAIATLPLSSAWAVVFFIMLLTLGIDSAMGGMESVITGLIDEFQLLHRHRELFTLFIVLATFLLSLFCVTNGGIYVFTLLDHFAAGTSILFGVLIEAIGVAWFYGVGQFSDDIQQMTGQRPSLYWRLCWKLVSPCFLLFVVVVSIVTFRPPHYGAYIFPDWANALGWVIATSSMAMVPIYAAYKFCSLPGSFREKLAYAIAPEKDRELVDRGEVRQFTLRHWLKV

[8] = biological target: M5 (Homo sapiens, UniProt P08912); experiment: Muscarinic acetylcholine receptor M5 binding; settings: [^3H]4-DAMP, Human recombinant CHO cells, read-out: CR6086 Activity at 10µM
M5, sequence (P08912 whole entry): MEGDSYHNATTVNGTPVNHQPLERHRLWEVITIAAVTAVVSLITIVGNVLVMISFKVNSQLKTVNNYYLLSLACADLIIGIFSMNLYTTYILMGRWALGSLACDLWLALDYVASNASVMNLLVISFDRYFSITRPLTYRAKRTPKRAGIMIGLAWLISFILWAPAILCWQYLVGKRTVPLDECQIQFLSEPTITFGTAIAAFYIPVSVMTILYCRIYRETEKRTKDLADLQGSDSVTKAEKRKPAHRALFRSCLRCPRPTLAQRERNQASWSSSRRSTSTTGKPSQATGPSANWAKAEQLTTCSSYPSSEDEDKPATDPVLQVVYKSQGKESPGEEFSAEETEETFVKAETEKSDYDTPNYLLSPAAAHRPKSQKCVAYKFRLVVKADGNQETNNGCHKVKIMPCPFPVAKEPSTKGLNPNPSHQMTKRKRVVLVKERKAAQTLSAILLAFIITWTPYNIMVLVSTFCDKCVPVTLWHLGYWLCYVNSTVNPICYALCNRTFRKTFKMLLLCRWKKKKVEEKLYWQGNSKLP

[9] = biological target: T1, EP2 (Homo sapiens, UniProt P43116); experiment: Eicosanoid receptor EP2 binding; settings: [^3H]PGE2, HEK-293 cells, read-out: CR6086 Activity at 10µM
T1 construct: host or cells: HEK-293 cells
T1 sequence (P43116 whole entry): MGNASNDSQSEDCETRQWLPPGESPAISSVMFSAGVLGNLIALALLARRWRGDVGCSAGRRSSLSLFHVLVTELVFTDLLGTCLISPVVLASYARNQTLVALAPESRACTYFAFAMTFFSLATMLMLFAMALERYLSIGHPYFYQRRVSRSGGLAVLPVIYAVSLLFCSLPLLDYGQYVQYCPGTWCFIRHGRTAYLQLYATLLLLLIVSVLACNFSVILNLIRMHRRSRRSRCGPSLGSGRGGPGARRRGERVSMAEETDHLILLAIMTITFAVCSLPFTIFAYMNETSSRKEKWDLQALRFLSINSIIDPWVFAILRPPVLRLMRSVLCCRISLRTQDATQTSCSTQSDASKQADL

[10] = biological target: M4 (Homo sapiens, UniProt P08173); experiment: Muscarinic acetylcholine receptor M4 binding; settings: [^3H]4-DAMP, Human recombinant CHO cells, read-out: CR6086 Activity at 10µM
M4, sequence (P08173 whole entry): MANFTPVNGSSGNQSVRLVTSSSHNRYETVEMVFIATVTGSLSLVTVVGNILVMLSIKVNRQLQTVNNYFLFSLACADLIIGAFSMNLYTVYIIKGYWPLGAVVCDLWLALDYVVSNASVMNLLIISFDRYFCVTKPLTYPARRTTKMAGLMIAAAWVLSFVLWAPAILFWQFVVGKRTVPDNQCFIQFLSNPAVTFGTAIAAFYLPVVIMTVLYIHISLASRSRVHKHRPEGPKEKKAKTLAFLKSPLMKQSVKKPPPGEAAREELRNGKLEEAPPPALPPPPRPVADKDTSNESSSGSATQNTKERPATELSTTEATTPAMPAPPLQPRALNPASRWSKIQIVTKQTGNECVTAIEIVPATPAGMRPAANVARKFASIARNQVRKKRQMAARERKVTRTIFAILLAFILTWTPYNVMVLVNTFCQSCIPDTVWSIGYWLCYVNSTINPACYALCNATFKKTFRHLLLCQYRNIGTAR

[11] = biological target: T2, mouse EP4 receptor (Mus musculus, UniProt P32240); experiment: EP4 radioligand binding assay ([^3H]PGE2), mouse receptor; settings: [^3H]PGE2 displacement; transiently transfected HEK293 membranes; read-out: Ki CR6086
T2 construct: the cDNA encoding the full-length rat (NM_032076) or mouse (NM_001136079) EP4 receptors; host or cells: HEK293 (transient)
T2 sequence (P32240 whole entry): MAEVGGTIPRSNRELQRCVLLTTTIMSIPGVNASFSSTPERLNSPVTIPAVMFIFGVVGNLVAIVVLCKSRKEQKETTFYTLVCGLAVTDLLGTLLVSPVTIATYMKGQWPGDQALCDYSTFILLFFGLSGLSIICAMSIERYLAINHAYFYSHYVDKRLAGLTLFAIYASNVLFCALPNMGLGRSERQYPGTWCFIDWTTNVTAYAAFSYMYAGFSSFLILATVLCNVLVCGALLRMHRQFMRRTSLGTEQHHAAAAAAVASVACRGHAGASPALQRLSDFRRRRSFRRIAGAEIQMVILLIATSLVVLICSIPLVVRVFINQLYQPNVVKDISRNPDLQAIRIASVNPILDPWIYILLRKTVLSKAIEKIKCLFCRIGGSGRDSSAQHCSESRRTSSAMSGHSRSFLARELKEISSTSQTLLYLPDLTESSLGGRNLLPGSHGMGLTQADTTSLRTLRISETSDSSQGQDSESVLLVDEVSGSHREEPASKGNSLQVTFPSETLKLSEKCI
Text: For rodent EP4 receptor cloning, the cDNA encoding the full-length rat (NM_032076) or mouse (NM_001136079) EP4 receptors cloned in pCMV6 entry was provided by OriGene Inc. (TrueORF Gold, catalogue numbers RN206839 and MC216813; OriGene, Rockville, MD, USA). Expression of rat and mouse receptors was obtained by transfecting HEK293 cells with the respective vector using Lipofectamine 3000 reagent (Thermo Fisher Scientific) according to the manufacturer’s instructions.
Membranes expressing the human EP4 receptor were prepared from stably transfected HEK293 cell line. […] Protein content of the cell membrane suspension was determined using bovine serum albumin (BSA) as a standard.
Experimental procedures were performed according to the method of Abramovitz et al.. […] The residual [^3H]PGE2 binding was determined using a solid scintillation counter (TopCount; PerkinElmer) after at least 1 h of stabilisation. In saturation binding studies, isotherm-binding curves generated with six to eight different concentrations of [^3H]PGE2 (from 0.5 to 25 nM) were evaluated. […]
Specific binding to the receptors was defined as the difference between total binding and non-specific binding, as determined in the presence of an excess of unlabelled ligand. […] Competition curves were analysed to assess the half-maximal inhibitory concentration (IC50). […] The results of replicated curves were expressed as mean ± SEM.

[12] = biological target: D1 (Homo sapiens, UniProt P21728); experiment: Dopamine receptor D1 binding; settings: [^3H]SCH 23390, Human recombinant CHO cells, read-out: CR6086 Activity at 10µM
D1, sequence (P21728 whole entry): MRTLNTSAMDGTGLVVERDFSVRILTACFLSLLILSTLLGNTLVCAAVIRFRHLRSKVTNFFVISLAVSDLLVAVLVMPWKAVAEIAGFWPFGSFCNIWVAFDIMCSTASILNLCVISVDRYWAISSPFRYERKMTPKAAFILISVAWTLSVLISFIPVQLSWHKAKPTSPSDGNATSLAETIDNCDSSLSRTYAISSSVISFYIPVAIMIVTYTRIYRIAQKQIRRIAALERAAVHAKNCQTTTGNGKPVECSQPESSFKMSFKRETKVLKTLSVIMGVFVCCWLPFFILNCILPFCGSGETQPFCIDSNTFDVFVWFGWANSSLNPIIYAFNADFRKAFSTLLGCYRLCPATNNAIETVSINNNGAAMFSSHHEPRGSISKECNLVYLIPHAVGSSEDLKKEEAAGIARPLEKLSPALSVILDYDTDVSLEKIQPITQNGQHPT

[13] = biological target: A3 (Homo sapiens, UniProt P0DMS8); experiment: Adenosine receptor A3 binding; settings: [^125I]AB-MECA, Human recombinant HEK-293 cells, read-out: CR6086 Activity at 10µM
A3, sequence (P0DMS8 whole entry): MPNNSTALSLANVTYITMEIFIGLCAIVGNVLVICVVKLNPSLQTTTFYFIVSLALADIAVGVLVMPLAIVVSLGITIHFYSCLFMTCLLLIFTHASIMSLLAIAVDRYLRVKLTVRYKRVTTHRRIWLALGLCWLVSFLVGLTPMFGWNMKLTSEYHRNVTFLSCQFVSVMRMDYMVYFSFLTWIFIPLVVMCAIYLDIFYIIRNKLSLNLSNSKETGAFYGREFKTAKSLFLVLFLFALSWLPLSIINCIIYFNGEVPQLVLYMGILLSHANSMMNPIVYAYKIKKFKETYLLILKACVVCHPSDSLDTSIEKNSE

[14] = biological target: CysLT2 (Cys-LTs) (Homo sapiens, UniProt Q9NS75); experiment: Eicosanoid receptor CysLT2 binding; settings: [^3H]LTD4, HEK-293 cells, read-out: CR6086 Activity at 10µM
CysLT2 (Cys-LTs), sequence (Q9NS75 whole entry, species assumed): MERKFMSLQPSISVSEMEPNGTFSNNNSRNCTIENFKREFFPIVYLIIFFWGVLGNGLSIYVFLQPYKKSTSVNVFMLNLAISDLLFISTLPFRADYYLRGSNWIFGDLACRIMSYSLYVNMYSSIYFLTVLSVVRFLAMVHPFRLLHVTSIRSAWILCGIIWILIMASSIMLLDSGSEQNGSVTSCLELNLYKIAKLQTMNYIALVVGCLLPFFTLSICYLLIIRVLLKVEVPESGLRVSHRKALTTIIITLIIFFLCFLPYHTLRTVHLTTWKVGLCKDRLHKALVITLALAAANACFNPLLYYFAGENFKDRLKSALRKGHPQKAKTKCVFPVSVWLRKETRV

[15] = biological target: H1 (Homo sapiens, UniProt P35367); experiment: Histamine receptor H1 binding; settings: [^3H]pyrilamine, Human recombinant HEK-293 cells, read-out: CR6086 Activity at 10µM
H1, sequence (P35367 whole entry): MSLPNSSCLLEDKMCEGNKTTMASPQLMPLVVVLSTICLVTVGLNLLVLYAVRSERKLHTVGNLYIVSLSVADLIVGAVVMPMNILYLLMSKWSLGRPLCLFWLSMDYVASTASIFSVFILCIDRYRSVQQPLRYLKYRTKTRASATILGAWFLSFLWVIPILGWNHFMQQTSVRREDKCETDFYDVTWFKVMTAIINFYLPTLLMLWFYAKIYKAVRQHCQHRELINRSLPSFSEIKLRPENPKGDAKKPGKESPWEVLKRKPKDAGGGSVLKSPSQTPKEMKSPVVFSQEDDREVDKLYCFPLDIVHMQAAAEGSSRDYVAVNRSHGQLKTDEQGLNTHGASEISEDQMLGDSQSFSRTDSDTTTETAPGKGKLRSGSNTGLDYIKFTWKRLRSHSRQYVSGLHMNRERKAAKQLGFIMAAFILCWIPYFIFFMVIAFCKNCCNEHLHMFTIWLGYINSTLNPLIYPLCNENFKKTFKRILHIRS

O=C([O-])c1ccc(C2(NC(=O)[C@H]3CC4(CCN3Cc3ccc(C(F)(F)F)cc3)CC4)CC2)cc1.[Na+] [CR6086, Sodium (R)-4-(1-(6-(4-(trifluoromethyl)benzyl)-6-azaspiro[2.5]octane-5-carboxamido)cyclopropyl)benzoate]
CR6086 Activity at 10µM [1]: IN (IN = < 20% displacement or inhibition (all tables))
CR6086 Activity at 10µM [2]: IN (IN = < 20% displacement or inhibition (all tables))
CR6086 Activity at 10µM [3]: IN (IN = < 20% displacement or inhibition (all tables))
inhibition at 10 µM [4]: < 20%
inhibition at 10 µM [5]: < 20%
CR6086 Activity at 10µM [6]: IN (IN = < 20% displacement or inhibition (all tables))
inhibition at 10 µM [7]: < 20%
inhibition at 10 µM [8]: < 20%
inhibition at 10 µM [9]: < 20%
inhibition at 10 µM [10]: < 20%
Ki [11]: 75.9 ± 7.6 nM
inhibition at 10 µM [12]: < 20%
inhibition at 10 µM [13]: < 20%
inhibition at 10 µM [14]: < 20%
inhibition at 10 µM [15]: < 20%
